“Also recorded” adds a separate entry of the source. Where a name gives a salt, the structure may show the parent alone.
What was measured:
[1] = Plasma concentrations of d6-DM, d6-DM metabolites and Q by CYP2D6 metabolizer group; format: in vivo, human; details: for Changes in plasma concentrations from Week 6 to Week 12: all patients combined, sample 0-3 hours after morning dose; for Plasma concentration by CYP2D6 metabolizer group: poor, intermediate, extensive, ultra-rapid metabolizers; for Plasma concentration/exposure in relation to d6-DM dose of AVP-786: AVP-786-28 vs AVP-786-42.63
Method: Plasma samples were separated by centrifugation and frozen at −20° C. until assayed at the analytical unit.

P-glycoprotein = P-glycoprotein (Homo sapiens, UniProt P08183); details: cited from earlier work
Chain of P-glycoprotein (P08183 whole entry): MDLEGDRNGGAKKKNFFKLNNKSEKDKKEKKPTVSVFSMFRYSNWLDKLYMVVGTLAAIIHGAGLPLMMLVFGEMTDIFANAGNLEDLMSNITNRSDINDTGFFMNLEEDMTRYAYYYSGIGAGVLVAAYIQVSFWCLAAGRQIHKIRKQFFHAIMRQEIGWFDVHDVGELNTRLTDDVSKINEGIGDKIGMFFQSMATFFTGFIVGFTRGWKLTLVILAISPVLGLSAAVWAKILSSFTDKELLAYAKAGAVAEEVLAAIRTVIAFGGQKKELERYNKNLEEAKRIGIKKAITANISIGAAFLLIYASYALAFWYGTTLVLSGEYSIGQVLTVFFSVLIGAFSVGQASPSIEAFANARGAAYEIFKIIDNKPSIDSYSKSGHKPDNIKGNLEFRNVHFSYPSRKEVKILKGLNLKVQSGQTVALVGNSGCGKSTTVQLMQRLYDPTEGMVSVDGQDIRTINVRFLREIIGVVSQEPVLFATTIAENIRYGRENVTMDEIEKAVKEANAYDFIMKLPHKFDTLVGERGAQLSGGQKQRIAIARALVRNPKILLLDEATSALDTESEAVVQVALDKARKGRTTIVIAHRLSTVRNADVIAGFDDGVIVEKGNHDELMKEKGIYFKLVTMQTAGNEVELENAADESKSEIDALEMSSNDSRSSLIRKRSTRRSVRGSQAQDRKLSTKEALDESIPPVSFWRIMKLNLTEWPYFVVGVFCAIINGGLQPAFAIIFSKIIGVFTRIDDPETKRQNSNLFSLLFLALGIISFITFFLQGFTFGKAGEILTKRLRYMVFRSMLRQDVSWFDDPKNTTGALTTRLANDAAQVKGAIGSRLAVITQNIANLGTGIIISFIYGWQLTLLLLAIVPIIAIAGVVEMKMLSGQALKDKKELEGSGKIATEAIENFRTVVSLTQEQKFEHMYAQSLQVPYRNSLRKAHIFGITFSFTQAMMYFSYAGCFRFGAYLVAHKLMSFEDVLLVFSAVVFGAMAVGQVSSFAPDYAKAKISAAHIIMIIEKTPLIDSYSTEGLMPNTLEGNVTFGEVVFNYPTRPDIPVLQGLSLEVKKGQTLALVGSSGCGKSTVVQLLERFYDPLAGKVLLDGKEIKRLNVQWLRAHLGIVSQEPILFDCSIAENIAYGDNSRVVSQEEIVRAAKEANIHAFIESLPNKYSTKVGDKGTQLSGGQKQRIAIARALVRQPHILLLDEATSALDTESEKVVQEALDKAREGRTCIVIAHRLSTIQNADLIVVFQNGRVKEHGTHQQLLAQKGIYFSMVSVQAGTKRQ

sigma-1 receptor = sigma-1 receptor (Homo sapiens, UniProt Q99720); details: cited from earlier work
Chain of sigma-1 receptor (Q99720 whole entry, species assumed): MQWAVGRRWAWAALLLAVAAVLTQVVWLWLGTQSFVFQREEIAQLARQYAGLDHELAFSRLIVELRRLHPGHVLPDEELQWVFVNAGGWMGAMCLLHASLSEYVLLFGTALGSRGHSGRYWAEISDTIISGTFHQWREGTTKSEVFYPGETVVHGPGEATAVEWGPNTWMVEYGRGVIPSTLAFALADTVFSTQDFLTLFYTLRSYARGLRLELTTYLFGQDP

Row | SMILES | Changes in plasma concentrations from Week 6 to Week 12 [1] | P-glycoprotein inhibition (P-glycoprotein) | Plasma concentration by CYP2D6 metabolizer group [1] | Plasma concentration/exposure in relation to d6-DM dose of AVP-786 [1] | Plasma concentration/exposure in relation to d6-DM dose of AVP-786 ([1]; hydrobromide) | receptor binding (sigma-1 receptor)
1 | C=C[C@H]1C[N@@]2CC[C@H]1C[C@@H]2[C@@H](O)c1ccnc2ccc(OC)cc12 [Q, Quinidine, reference compound] | did not appear to be any significant changes |  |  |  |  | 
2 | C=C[C@H]1C[N@]2CC[C@@H]1C[C@@H]2[C@@H](O)c1ccnc2ccc(OC)cc12 [Quinidine, quinidine sulfate] |  | P-glycoprotein inhibitor |  |  |  | 
3 | [2H]C([2H])([2H])Oc1ccc2c(c1)C13CCCCC1C(C2)NCC3 (centres unmarked) [d3-3-MM, d3-3-methoxymorphinan] | did not appear to be any significant changes |  | highest in the poor and intermediate metabolizer groups and lowest in the ultra-rapid metabolizer group |  |  | 
4 | [2H]C([2H])([2H])N1CCC23CCCCC2C1Cc1ccc(O)cc13 (centres unmarked) [d3-DX, d3-dextrorphan] | did not appear to be any significant changes |  | lowest in the poor metabolizer group and highest in the extensive and ultra-rapid metabolizer groups | generally higher; also recorded: increased with the increase in d6-DM dose |  | 
5 | [2H]C([2H])([2H])Oc1ccc2c(c1)[C@]13CCCC[C@@H]1[C@H](C2)N(C([2H])([2H])[2H])CC3 [d6-DM, deuterated [d6]-dextromethorphan hydrobromide] | did not appear to be any significant changes |  | highest in the poor and intermediate metabolizer groups and lowest in the ultra-rapid metabolizer group |  | generally higher; also recorded: increased with the increase in d6-DM dose | binds to the sigma-1 receptor

From patent publication US20230270738A1, “METHODS OF TREATING AGITATION ASSOCIATED WITH ALZHEIMER'S DISEASE” (Avanir Phrmaceuticals Inc., priority 2020, published 2023)
